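Tested at 5 concentrations; 48 h exposure; 96-well plates; endpoints linearly interpolated, else capped at highest concentration. TGI is the concentration that stops growth completely.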 Where only a bound is given, the exact number is not on record here.

Among the test systems are U251 CNS; SF-268 CNS; TK-10 renal; M14 melanoma; COLO 205 colon; SK-OV-3 ovarian; HOP-62 NSCLC; SNB-75 CNS; OVCAR-4 ovarian; HL-60(TB) leukemia.
What all share (test): NCI tumour cell line growth inhibition, 48 h

Consider `O=C1CN(C(=O)C2CCCN2C(=O)C2CCCN2)C(=O)CN1` (stereo not given), for which the TGI in the test on U251 CNS, in the test on SF-268 CNS, in the test with TK-10 renal, in the test on M14 melanoma, in the test on COLO 205 colon and in the test on SK-OV-3 ovarian was greater than 100 µM in each case. Moreover, the TGI with HOP-62 NSCLC, with SNB-75 CNS, in the test on OVCAR-4 ovarian and in the test on HL-60(TB) leukemia was greater than 100 µM each time.
On to `COc1ccc(CC2CCc3nc(N)nc(N)c3C2)cc1OC` (stereo not given), for which the TGI in the test with U251 CNS was greater than 100 µM; in the test with SF-268 CNS, greater than 29 µM; in the test with TK-10 renal, greater than 100 µM; in the test on M14 melanoma, greater than 39.5 µM; with COLO 205 colon, 36 µM; with SK-OV-3 ovarian, greater than 100 µM. The TGI in the test with HOP-62 NSCLC, in the test with SNB-75 CNS, in the test on OVCAR-4 ovarian and in the test with HL-60(TB) leukemia was greater than 100 µM each time.
As to `Cc1c(C)c(C)n(C2OC(CO)C(O)C(O)C2O)c(=S)c1C#N` (stereo not given), the TGI with U251 CNS, in the test on SF-268 CNS, in the test on TK-10 renal, with M14 melanoma, in the test with COLO 205 colon and with SK-OV-3 ovarian was greater than 100 µM throughout. Further, the TGI in the test on HOP-62 NSCLC, in the test on SNB-75 CNS, in the test on OVCAR-4 ovarian and with HL-60(TB) leukemia was greater than 100 µM in each case.
Regarding `CCCCC(=O)c1ccc2ccccc2c1O`, the TGI in the test with U251 CNS, with SF-268 CNS, with TK-10 renal, in the test on M14 melanoma, with COLO 205 colon and in the test with SK-OV-3 ovarian was greater than 100 µM throughout. For the same compound, the TGI in the test on HOP-62 NSCLC, in the test with SNB-75 CNS, in the test on OVCAR-4 ovarian and in the test on HL-60(TB) leukemia was greater than 100 µM throughout.
In the case of `CC(C)NC(NC(C)C)=C(S(=O)(=O)C(F)(F)C(F)(F)C(F)(F)C(F)(F)F)S(=O)(=O)C(F)(F)C(F)(F)C(F)(F)C(F)(F)F`, the TGI with U251 CNS, with SF-268 CNS, with TK-10 renal, with M14 melanoma, with COLO 205 colon and with SK-OV-3 ovarian was greater than 100 µM each time. Further, the TGI in the test on HOP-62 NSCLC, with SNB-75 CNS, with OVCAR-4 ovarian and in the test on HL-60(TB) leukemia was greater than 100 µM throughout.
`CC1(C)C2CCC(CN)(C2)C1N` (stereo not given): the TGI in the test with U251 CNS, in the test with SF-268 CNS, with TK-10 renal, with M14 melanoma, in the test with COLO 205 colon and in the test with SK-OV-3 ovarian was greater than 100 µM each time. The TGI with HOP-62 NSCLC, in the test with SNB-75 CNS, with OVCAR-4 ovarian and in the test with HL-60(TB) leukemia was greater than 100 µM throughout.
Consider `CC(=O)N(C(C)=O)n1c(Cc2ccc(Cl)cc2)n[nH]c1=O`, for which the TGI in the test on U251 CNS, with SF-268 CNS, in the test with TK-10 renal, with M14 melanoma, in the test with COLO 205 colon and with SK-OV-3 ovarian was greater than 100 µM throughout. Besides, the TGI is 98.8 µM in the test with HOP-62 NSCLC, greater than 100 µM in the test on SNB-75 CNS, greater than 100 µM in the test with OVCAR-4 ovarian and greater than 100 µM in the test with HL-60(TB) leukemia.
As to `CC(=N)OC1CC2CCC1(C)C2(C)C` (stereo not given), the TGI in the test with U251 CNS, with SF-268 CNS, in the test with TK-10 renal, in the test with M14 melanoma, in the test on COLO 205 colon and with SK-OV-3 ovarian was greater than 100 µM throughout. The TGI in the test with HOP-62 NSCLC, with SNB-75 CNS, in the test on OVCAR-4 ovarian and with HL-60(TB) leukemia was greater than 100 µM throughout.
`CN(CCC(=O)O)C1=Nc2ccc(Cl)cc2C(c2ccccc2)=[N+]([O-])C1`: the TGI in the test on U251 CNS, in the test on SF-268 CNS, with TK-10 renal, in the test with M14 melanoma, in the test with COLO 205 colon and with SK-OV-3 ovarian was greater than 100 µM in each case. For the same compound, the TGI in the test on HOP-62 NSCLC, with SNB-75 CNS, in the test with OVCAR-4 ovarian and in the test on HL-60(TB) leukemia was greater than 100 µM in each case.
Regarding `CCOC(=O)c1oc2cc3c(c4c2c1-c1ccccc1N4C)C=CC(C)(C)O3`, the TGI is 31 µM in the test on U251 CNS; greater than 49.3 µM in the test on SF-268 CNS; 27.3 µM in the test on TK-10 renal; greater than 100 µM in the test on M14 melanoma; greater than 100 µM in the test with COLO 205 colon; 69.4 µM in the test on SK-OV-3 ovarian. Further, the TGI is 24.7 µM in the test with HOP-62 NSCLC, 36.4 µM in the test on SNB-75 CNS, greater than 100 µM in the test with OVCAR-4 ovarian and greater than 100 µM in the test with HL-60(TB) leukemia.
For `CN(C)c1ccc(/C=C2/NC(=S)NC2=O)cc1`, the TGI in the test with U251 CNS, in the test with SF-268 CNS, in the test with TK-10 renal, with M14 melanoma, with COLO 205 colon and with SK-OV-3 ovarian was greater than 100 µM throughout. Besides, the TGI in the test with HOP-62 NSCLC is greater than 100 µM; in the test on SNB-75 CNS, greater than 100 µM; with OVCAR-4 ovarian it was greater than 100 µM; in the test with HL-60(TB) leukemia, 51 µM.
Take `Cc1cc(S(=O)(=O)Nc2nc(N)n(-c3ccccn3)n2)c(S)cc1Cl`: the TGI in the test with U251 CNS, with SF-268 CNS, in the test with TK-10 renal, in the test with M14 melanoma, in the test on COLO 205 colon and with SK-OV-3 ovarian was greater than 100 µM each time. Also, the TGI in the test with HOP-62 NSCLC, with SNB-75 CNS, in the test with OVCAR-4 ovarian and in the test on HL-60(TB) leukemia was greater than 100 µM in each case.
For the compound `C/C(Cl)=N/OC(=O)Nc1ccc(S(N)(=O)=O)c(C)c1`, the TGI in the test on U251 CNS was 33.7 µM; in the test on SF-268 CNS it was greater than 61.3 µM; with TK-10 renal it was 17.9 µM; in the test on M14 melanoma, 25.2 µM; in the test with COLO 205 colon it was 4.14 µM; with SK-OV-3 ovarian it was greater than 58.3 µM. Also, the TGI with HOP-62 NSCLC stood at 34.9 µM; with SNB-75 CNS it was 34.2 µM; in the test with OVCAR-4 ovarian, 29.3 µM; in the test with HL-60(TB) leukemia it was 3.05 µM.
On to `Cc1ccc(/C(Cl)=C/C=C(C#N)C#N)cc1`, for which the TGI in the test with U251 CNS is 18.4 µM; in the test with SF-268 CNS it was 21.3 µM; in the test on TK-10 renal, 13.2 µM; in the test on M14 melanoma, 6.37 µM; with COLO 205 colon it was 12.1 µM; with SK-OV-3 ovarian, 26.1 µM. Further, the TGI in the test on HOP-62 NSCLC came out at 3.88 µM; in the test on SNB-75 CNS, 37.6 µM; with OVCAR-4 ovarian, 8.74 µM; with HL-60(TB) leukemia it was 36.9 µM.
With `COC(=O)/C=C(/C=C1/C(C#N)=C(N)N(c2ccc(Cl)cc2)C1(C)/C(=C/C(=O)OC)C(=O)OC)C(=O)OC` (stereo not given), the TGI with U251 CNS, with SF-268 CNS, with TK-10 renal, in the test on M14 melanoma, with COLO 205 colon and in the test on SK-OV-3 ovarian was greater than 100 µM throughout. Besides, the TGI in the test on HOP-62 NSCLC is greater than 100 µM; with SNB-75 CNS, 76 µM; with OVCAR-4 ovarian, greater than 100 µM; with HL-60(TB) leukemia it was 41.8 µM.
Take `O=C(O)CCC(=O)Nc1ccc2ccccc2c1`: the TGI in the test on U251 CNS, in the test with SF-268 CNS, in the test with TK-10 renal, in the test on M14 melanoma, in the test with COLO 205 colon and in the test on SK-OV-3 ovarian was greater than 100 µM in each case. Moreover, the TGI in the test with HOP-62 NSCLC, in the test on SNB-75 CNS, in the test with OVCAR-4 ovarian and in the test on HL-60(TB) leukemia was greater than 100 µM throughout.
In the case of `Cc1cc2cc3c(cc2c(-c2ccc([N+](=O)[O-])cc2)n1)OCO3`, the TGI in the test with U251 CNS is greater than 100 µM; in the test on SF-268 CNS it was greater than 100 µM; with TK-10 renal it was greater than 100 µM; with M14 melanoma, greater than 100 µM; in the test with COLO 205 colon, greater than 100 µM; with SK-OV-3 ovarian it was 71.2 µM. Moreover, the TGI with HOP-62 NSCLC is 40 µM; in the test with SNB-75 CNS, 58.4 µM; with OVCAR-4 ovarian, 56.8 µM; with HL-60(TB) leukemia, greater than 100 µM.
For the compound `CCCCCCCCCCCCN(CC(O)C(O)C(OC1OC(CO)C(O)C(O)C1O)C(O)CO)C(=O)CCCCCCCCCCC` (stereo not given), the TGI came to 32.6 µM in the test on U251 CNS; 43.6 µM in the test on SF-268 CNS; 29.9 µM with TK-10 renal; 39.7 µM in the test on M14 melanoma; 35.3 µM in the test with COLO 205 colon; 52.6 µM in the test with SK-OV-3 ovarian. Moreover, the TGI in the test on HOP-62 NSCLC is 55.6 µM; in the test with SNB-75 CNS, 35 µM; in the test with OVCAR-4 ovarian it was 44.5 µM; in the test with HL-60(TB) leukemia, greater than 100 µM.
For `c1nc(N2CC2)c2cnn(C3CCCCO3)c2n1` (stereo not given), the TGI with U251 CNS, with SF-268 CNS, in the test with TK-10 renal, in the test on M14 melanoma, with COLO 205 colon and in the test on SK-OV-3 ovarian was greater than 100 µM throughout. The TGI with HOP-62 NSCLC, in the test with SNB-75 CNS, with OVCAR-4 ovarian and in the test with HL-60(TB) leukemia was greater than 100 µM each time.
As for `COc1cc2ncnc(Nc3cccc(Cl)c3)c2cc1OC`, the TGI is 79.4 µM in the test on U251 CNS; 53.9 µM in the test on SF-268 CNS; 3.61 µM with TK-10 renal; 25.4 µM in the test on M14 melanoma; greater than 70.5 µM in the test with COLO 205 colon; 28.9 µM with SK-OV-3 ovarian. Besides, the TGI came to 58.7 µM in the test with HOP-62 NSCLC, 13.4 µM in the test on SNB-75 CNS, 75.8 µM with OVCAR-4 ovarian and 62.4 µM with HL-60(TB) leukemia.
Turning to `CCCC/C=C/C/C=C/CCCCCCCCC(=O)OCC1CCCN2CCCCC12` (stereo not given), the TGI in the test on U251 CNS, in the test on SF-268 CNS, in the test on TK-10 renal, in the test with M14 melanoma, in the test on COLO 205 colon and with SK-OV-3 ovarian was greater than 100 µM in each case. In addition, the TGI in the test on HOP-62 NSCLC, in the test with SNB-75 CNS, with OVCAR-4 ovarian and with HL-60(TB) leukemia was greater than 100 µM in each case.

These data come from PubChem BioAssay (NCI).
